Data set [1] can be described thus: Stability in kidney preparations (pig). The conditions noted are these: 100 mg/ml solubilised in 5% Triton X-100, * racemic compounds: figures based on stability of bio-active enantiomer. Format: in vitro ADME.
For data set [2], the system named is S typhimurium CT10. Briefly: MIC, antibacterial activity (microtitre using nutrient broth). In kind it is cell-based. The conditions noted are these: * racemic, not corrected for presence of inactive enantiomer.
In data set [3] the test system is R + E coli. Described as above. Format: cell-based. The note with it: * racemic, not corrected for presence of inactive enantiomer.
Data set [4] can be described thus: Stability in kidney preparations (human). Format: in vitro ADME.
The subject of data set [5] is S aureus Russell. Briefly: MIC, antibacterial activity (microtitre using nutrient broth). In kind it is cell-based. The conditions noted are these: * racemic, not corrected for presence of inactive enantiomer.
In data set [6] the test system is Pseudomonas aeruginosa A. The data set is described as above. Format: cell-based. The conditions noted are these: for MIC: Pseudomonas aeruginosa.
In data set [7] the test system is E. coli JT39. Briefly: MIC against E. coli JT39. In kind it is cell-based. Details: unit not given here.
Setting [8] is: 15% solubilised in 5% Triton X-100, 60 minutes, * racemic compounds: figures based on stability of bio-active enantiomer.
[9] abbreviates: Microtitre using Nutrient broth, * racemic, not corrected for presence of inactive enantiomer, read-out: MIC P aeruginosa A.

Consider nine compounds from patent publication EP0105658A1, “Beta-lactam compounds” (BEECHAM GROUP PLC, priority 1982, dated 1984).

Converted amounts (≈) assume the structure as drawn. Where two headings read alike, the source gives them in different places. Bounds are passed on as bounds.

As to `C[C@@H](O)[C@H]1C(=O)N2C(C(=O)O)=C(S/C=C\CN)C[C@H]12` (racemic) [Example 13, (5RS, 6SR)-3-[(Z)-3-Aminoprop-1-enylthio]-b-[(1RS)-1-hydroxyethyl]-7-oxo-1-azabicyclo[3.2.0]hept-2-ene-2-carboxylic acid], the “% left after 60 minutes Pig Kidney Acetone Powder” value in data set [1] was 40%. For the same compound, the MIC in data set [2] was determined as 0.6 µg/mL; in data set [3], 0.4 µg/mL; in data set [5], 0.08 µg/mL; in data set [6] (setting [9]), 25 µg/mL. In addition, the “% left after 60 minutes Human Kidney Sonicate” value in data set [4] (setting [8]) came to 39%.

On to `C[C@H](O)[C@@H]1C(=O)N2C(C(=O)O)=C(S/C=C\CN)C[C@H]12` [Example 1], for which, in data set [1], the “% left after 60 minutes Pig Kidney Acetone Powder” value stood at 39%. For the same compound, the “% left after 60 minutes Human Kidney Sonicate” value in data set [4] (setting [8]) was found to be 40%. For the same compound, in data set [7], the “MIC against E. coli JT39” value is 0.4. For the same compound, the MIC in data set [6] (read-out: MIC against Pseudomonas aeruginosa A) amounted to 6.2 µg/mL (≈ 21.8 µM).

On to `C[C@H](O)[C@@H]1C(=O)N2C(C(=O)O)=C(S/C=C/CN)C[C@H]12` [Example 11, (5R,6R)-3-[(E)-3-aminoprop-1-enylthio]-6-[(S)-1-hydroxyethyl]-7-oxo-1-azabicyelo[3.2.0]hept-2-ene-2-carboxylic acid], for which, in data set [1], the “% left after 60 minutes Pig Kidney Acetone Powder” value is recorded as 6%. Further, the minimal inhibitory concentration (MIC) in data set [2] was 0.4 µg/mL; in data set [3] it was under 0.1 µg/mL; in data set [5], under 0.1 µg/mL; in data set [6] (setting [9]), 12.5 µg/mL. Also, in data set [4] (setting [8]), the “% left after 60 minutes Human Kidney Sonicate” value is listed as 7%.

`C/C(=C/CN)SC1=C(C(=O)O)N2C(=O)[C@H]([C@@H](C)O)[C@H]2C1` [Example 10, (5R,6S)-3-[(Z)-3-amino-1-methylprop-1-enylthio]-6-[(R)-1-hydroxyethyl]-7-oxo-1-azabicyclo[3.2.0]hept-2-ene-2-carboxylic acid]: the MIC in data set [2] came to 0.2 µg/mL; in data set [5], 0.1 µg/mL; in data set [6] (setting [9]), 25 µg/mL. Also, the “% left after 60 minutes Human Kidney Sonicate” value in data set [4] (human, 60 min) was 56%.

Consider `C/C(=C/CN)SC1=C(C(=O)O)N2C(=O)[C@@H]([C@H](C)O)[C@H]2C1` [Example 8], for which the “% left after 60 minutes Pig Kidney Acetone Powder” value in data set [1] came out at 78%. The MIC in data set [2] was under 0.1 µg/mL; in data set [3], 1.6 µg/mL; in data set [5], under 0.1 µg/mL; in data set [6] (setting [9]), 25 µg/mL. In data set [4] (setting [8]), the “% left after 60 minutes Human Kidney Sonicate” value was determined as 51%.

As to `C[C@@H](O)[C@H]1C(=O)N2C(C(=O)O)=C(S/C=C/CN)C[C@H]12` [Example 12, (5R, 6S)-3-[(E)-3-aminoprop-1-enylthio]-6-[(R)-1-hydroxyethyl]-7-oxo-1-azabicyclo[3.2.0]hept-2-ene-2-carboxylic acid], the values for the MIC in data set [2], in data set [5] and in data set [6] (setting [9]) were 0.2 µg/mL, under 0.1 µg/mL and 12.5 µg/mL, respectively. Further, the “% left after 60 minutes Human Kidney Sonicate” value in data set [4] (human, 60 min) stood at 5%.

With `C/C(=C\CN)SC1=C(C(=O)O)N2C(=O)[C@@H]([C@H](C)O)[C@H]2C1` [Example 16, (5R, 6R)-3-[(E)-3-amino-1-methylprop-1-enylthio]-6-[(S)-1-hydroxyethyl]-7-oxo-1-azabicyclo[3.2.0]hept-2-ene-2-carboxylate], in data set [1], the “% left after 60 minutes Pig Kidney Acetone Powder” value came out at 38%. The MIC in data set [2] is 0.2 µg/mL; in data set [3], 1.6 µg/mL; in data set [5], under 0.1 µg/mL; in data set [6] (setting [9]), 25 µg/mL. Further, the “% left after 60 minutes Human Kidney Sonicate” value in data set [4] (setting [8]) is 13%.

Regarding `C/C(=C\CN)SC1=C(C(=O)O)N2C(=O)[C@H]([C@@H](C)O)[C@H]2C1` (racemic) [Example 14, (5RS, 6SR)-3-[(E)-3-amino-1-methylprop-1-enylthio]-6-[(RS)-1-hydroxyethyl]-7-oxo=1-azabicyclo[3.2.0]hept-2-ene-2-carboxylic acid], the “% left after 60 minutes Pig Kidney Acetone Powder” value in data set [1] is 36%. Moreover, the MIC in data set [2] is 0.4 µg/mL; in data set [3], 0.4 µg/mL; in data set [5] it was under 0.1 µg/mL; in data set [6] (setting [9]) it was 25 µg/mL. For the same compound, the “% left after 60 minutes Human Kidney Sonicate” value in data set [4] (setting [8]) came to 23%.

As to `C[C@@H](O)[C@H]1C(=O)N2C(C(=O)O)=C(S/C=C\CN)C[C@H]12` [Example 2, (5R,6S)-3-[(Z)-3-aminoprop-1-enylthio]-6-[(R)-1-hydroxyethyl]-7-oxo-1-azabicy,clo[3.2.0]hept-2-ene-2-carboxylic acid], in data set [2], the “MIC S typhimurium CT10” value was 0.6 µg/mL. The “MIC R + E coli” value in data set [3] worked out at 0.3 µg/mL. In addition, the “MIC S aureus Russell” value in data set [5] amounted to 0.08 µg/mL. Besides, in data set [6] (Microtitre using Nutrient broth, * racemic, not corrected for presence of inactive enantiomer), the “MIC P aeruginosa A” value was determined as 25 µg/mL.

The MIC is the least concentration at which growth counts as inhibited.
